Experiments:
[1] = Lipophilicity, logD of compound at pH 7.4 by chromatography; assay type: physicochemical; conditions: buffer
in vitro = conditions: PAMPA
[2] = Dissociation constant, pKa of compound; assay type: physicochemical
[3] = Volume of distribution at steady state in Wistar Han rat at 1 mg/kg, iv at 7 to 24 hrs by LC-MS/MS analysis; assay type: ADME, organism-based; conditions: in vivo, time 7-24 hrs, read-out: Vdss
[4] = Cmax in Wistar Han rat at 1 mg/kg, po at 7 to 24 hrs by LC-MS/MS analysis; assay type: ADME, organism-based; conditions: in vivo, time 7-24 hrs
[5] = MRT in Wistar Han rat at 1 mg/kg, iv at 7 to 24 hrs by LC-MS/MS analysis; assay type: ADME, organism-based; conditions: in vivo, time 7-24 hrs
[6] = Oral availability in Wistar Han rat at 1 mg/kg at 7 to 24 hrs by LC-MS/MS analysis; assay type: ADME, organism-based; conditions: in vivo, time 7-24 hrs
[7] = AUC in Wistar Han rat at 1 mg/kg, po at 7 to 24 hrs by LC-MS/MS analysis; assay type: ADME, organism-based; conditions: in vivo, time 7-24 hrs
[8] = Kinetic solubility of compound by CAD analysis; assay type: physicochemical; conditions: read-out: Kinetic_solubility
[9] = Unbound AUC in Wistar Han rat at 1 mg/kg, po at 7 to 24 hrs by LC-MS/MS analysis; assay type: ADME, organism-based; conditions: in vivo, time 7-24 hrs
[10] = Unbound AUC in Wistar Han rat at 2 mg/kg, po at 7 to 24 hrs by LC-MS/MS analysis; assay type: ADME, organism-based; conditions: in vivo, time 7-24 hrs

SMILES | chromatographic logD [1] | Papp (in vitro) | other results
COc1cc(C(CC(=O)O)CN2CC(C(F)(F)CCc3ccc4c(n3)NCCC4)C2)ccc1C#N (racemic) | 2.9 | 5.5 ×10⁻⁶ cm/s | 
O=C(O)CC(CN1CC(C(F)(F)CCc2ccc3c(n2)NCCC3)C1)c1cccc(N2CCOCC2)c1 (racemic) | 2.7 | 5.5 ×10⁻⁶ cm/s | 
O=C(O)CC(CN1CC(C(F)(F)CCc2ccc3c(n2)NCCC3)C1)c1ccnc(C2CC2)c1 (racemic) | 2.5 | 7.4 ×10⁻⁶ cm/s | 
O=C(O)CC(CN1CC(C(F)(F)CCc2ccc3c(n2)NCCC3)C1)c1cccc2c1OCC2 (racemic) | 3.1 | 19 ×10⁻⁶ cm/s | 
O=C(O)CC(CN1CC(C(F)(F)CCc2ccc3c(n2)NCCC3)C1)c1ccccc1 (racemic) | 3 | 21 ×10⁻⁶ cm/s | 
O=C(O)CC(CN1CC(C(F)(F)CCc2ccc3c(n2)NCCC3)C1)c1ccc2c(c1)OCC2 (racemic) | 3 | 16 ×10⁻⁶ cm/s | 
COc1ncc(C(CC(=O)O)CN2CC(C(F)(F)CCc3ccc4c(n3)NCCC4)C2)cc1C (racemic) | 2.7 | 10.2 ×10⁻⁶ cm/s | Vd [3]: 1.1 L/kg; Cmax [4]: 496 ng/mL; MRT [5]: 2.9 h; bioavailability [6]: 57%; AUC [7]: 1510 ng·h/mL; solubility kinetic [8]: ≥ 118 µg/mL; fAUC [9]: 152 ng·h/mL
O=C(O)C[C@H](CN1CC(CCc2ccc3c(n2)NCCC3)C1)c1cccc(N2CCOCC2)c1 |  | < 0.3 ×10⁻⁶ cm/s | 
O=C(O)CC(CN1CC(C(F)(F)CCc2ccc3c(n2)NCCC3)C1)c1cccc(OC2CCOCC2)c1 (racemic) | 3.1 | 8.9 ×10⁻⁶ cm/s | 
Cc1cc(C)n(-c2cccc(C(CC(=O)O)CN3CC(C(F)(F)CCc4ccc5c(n4)NCCC5)C3)c2)n1 (racemic) | 3.3 | 13 ×10⁻⁶ cm/s | Vd [3]: 0.7 L/kg; Cmax [4]: 12.4 ng/mL; MRT [5]: 0.2 h; bioavailability [6]: 3%; AUC [7]: 14 ng·h/mL; fAUC [9]: 0.6 ng·h/mL
COc1cc([C@H](CC(=O)O)CN2CC(C(F)(F)CCc3ccc4c(n3)NCCC4)C2)ccc1F | 3.1 | 16.3 ×10⁻⁶ cm/s | Vd [3]: 4.6 L/kg; MRT [5]: 3.1 h; pKa [2]: 4; bioavailability [6]: 94%; AUC [7]: 881 ng·h/mL; solubility kinetic [8]: ≥ 159 µg/mL; fAUC [9]: 135 ng·h/mL
O=C(O)C[C@H](CN1CC[C@@H](CCc2ccc3c(n2)NCCC3)C1)c1cccc(N2CCOCC2)c1 |  | 2.7 ×10⁻⁶ cm/s | 
COc1cccc(C(CC(=O)O)CN2CC(C(F)(F)CCc3ccc4c(n3)NCCC4)C2)c1I (racemic) | 3 | 15 ×10⁻⁶ cm/s | 
COc1ccc(F)c(C(CC(=O)O)CN2CC(C(F)(F)CCc3ccc4c(n3)NCCC4)C2)c1 (racemic) | 3.3 | 25 ×10⁻⁶ cm/s | Vd [3]: 1.6 L/kg; Cmax [4]: 739 ng/mL; MRT [5]: 4.2 h; bioavailability [6]: 91%; AUC [7]: 2460 ng·h/mL; fAUC [9]: 163 ng·h/mL
COc1cc(C(CC(=O)O)CN2CC(C(F)(F)CCc3ccc4c(n3)NCCC4)C2)ccc1F (racemic) | 3.2 | 23 ×10⁻⁶ cm/s | Vd [3]: 2.4 L/kg; Cmax [4]: 313 ng/mL; MRT [5]: 3.8 h; bioavailability [6]: 79%; AUC [7]: 1370 ng·h/mL; fAUC [9]: 212 ng·h/mL
O=C(O)CC(CN1CC(C(F)(F)CCc2ccc3c(n2)NCCC3)C1)c1ccnc(OC2CC2)c1 (racemic) | 2.7 | 10.4 ×10⁻⁶ cm/s | 
O=C(O)CC(CN1CC(C(F)(F)CCc2ccc3c(n2)NCCC3)C1)c1cccc(C2CC2)c1 (racemic) | 3.7 | 43 ×10⁻⁶ cm/s | 
COc1cc(C(CC(=O)O)CN2CC(C(F)(F)CCc3ccc4c(n3)NCCC4)C2)ccc1Cl (racemic) | 3.6 | 28 ×10⁻⁶ cm/s | 

Continued, in another order:

chromatographic logD [1] | Papp (in vitro) | SMILES | other results
3.5 | 39 ×10⁻⁶ cm/s | O=C(O)CC(CN1CC(C(F)(F)CCc2ccc3c(n2)NCCC3)C1)c1cccc(OC2CC2)c1 (racemic) | 
2 | < 0.3 ×10⁻⁶ cm/s | COCCOc1cccc(C(CC(=O)O)CN2CC(OCc3ccc4c(n3)NCCC4)C2)c1 (racemic) | pKa [2]: 4
 | < 1 ×10⁻⁶ cm/s | Cc1cc(C)n(-c2cccc([C@H](CC(=O)O)CN3CC(CCCc4ccc5c(n4)NCCC5)C3)c2)n1 | 
2.4 | 7.2 ×10⁻⁶ cm/s | COCCOc1cccc([C@H](CC(=O)O)CN2CC(SCCc3ccc4c(n3)NCCC4)C2)c1 | pKa [2]: 4.3
 | < 0.3 ×10⁻⁶ cm/s | Cc1cc(C)n(-c2cccc([C@@H](CC(=O)O)CN3CC(CCCc4ccc5c(n4)NCCC5)C3)c2)n1 | 
2.9 | 6.3 ×10⁻⁶ cm/s | O=C(O)CC(CN1CC(C(F)(F)CCc2ccc3c(n2)NCCC3)C1)c1cccc(O[C@H]2CCOC2)c1 (mixture of isomers) | 
2.9 | 14.6 ×10⁻⁶ cm/s | COCCOc1cccc([C@H](CC(=O)O)CN2CC[C@@](F)(CCc3ccc4c(n3)NCCC4)C2)c1 | Vd [3]: 3.6 L/kg; fAUC [10]: 280 ng·h/mL; Cmax [4]: 530 ng/mL; MRT [5]: 3 h; pKa [2]: 4.1; bioavailability [6]: 93%; solubility kinetic [8]: ≥ 238 µg/mL
3 | 20 ×10⁻⁶ cm/s | COc1cccc(C(CC(=O)O)CN2CC(C(F)(F)CCc3ccc4c(n3)NCCC4)C2)c1 (racemic) | 
2.4 | 6.5 ×10⁻⁶ cm/s | COCCOc1cccc([C@@H](CC(=O)O)CN2CC(SCCc3ccc4c(n3)NCCC4)C2)c1 | 
3 | 3.2 ×10⁻⁶ cm/s | COCCOc1cccc([C@@H](CC(=O)O)CN2CC(C(F)(F)CCc3ccc4c(n3)NCCC4)C2)c1 | 
3 | 8.8 ×10⁻⁶ cm/s | COCCOc1cccc([C@H](CC(=O)O)CN2CC(C(F)(F)CCc3ccc4c(n3)NCCC4)C2)c1 | Vd [3]: 3 L/kg; Cmax [4]: 20.4 ng/mL; MRT [5]: 1.7 h; pKa [2]: 3.9; bioavailability [6]: 17%; AUC [7]: 95 ng·h/mL; fAUC [9]: 38 ng·h/mL
3.4 | 21 ×10⁻⁶ cm/s | CCOc1cccc(C(CC(=O)O)CN2CC(C(F)(F)CCc3ccc4c(n3)NCCC4)C2)c1 (racemic) | 
2.8 | 8.2 ×10⁻⁶ cm/s | O=C(O)CC(CN1CC(C(F)(F)CCc2ccc3c(n2)NCCC3)C1)c1cccc(O[C@@H]2CCOC2)c1 (mixture of isomers) | 
